Experiments:
[1] = biological target: Neuronal acetylcholine receptor subunit alpha-7 (Rattus norvegicus) (UniProt Q05941); experiment: Displacement of [3H]MLA from alpha-7 nAChR expressed in rat brain membrane at 100 nM
[2] = biological target: Neuronal acetylcholine receptor; alpha4/beta2 (Rattus norvegicus) (UniProt P09483+P12390); experiment: Displacement of [3H]NIC from alpha-4-beta-2 nAChR expressed in rat brain membrane at 100 nM

Chain of Neuronal acetylcholine receptor subunit alpha-7 (Rattus norvegicus) (Q05941 whole entry): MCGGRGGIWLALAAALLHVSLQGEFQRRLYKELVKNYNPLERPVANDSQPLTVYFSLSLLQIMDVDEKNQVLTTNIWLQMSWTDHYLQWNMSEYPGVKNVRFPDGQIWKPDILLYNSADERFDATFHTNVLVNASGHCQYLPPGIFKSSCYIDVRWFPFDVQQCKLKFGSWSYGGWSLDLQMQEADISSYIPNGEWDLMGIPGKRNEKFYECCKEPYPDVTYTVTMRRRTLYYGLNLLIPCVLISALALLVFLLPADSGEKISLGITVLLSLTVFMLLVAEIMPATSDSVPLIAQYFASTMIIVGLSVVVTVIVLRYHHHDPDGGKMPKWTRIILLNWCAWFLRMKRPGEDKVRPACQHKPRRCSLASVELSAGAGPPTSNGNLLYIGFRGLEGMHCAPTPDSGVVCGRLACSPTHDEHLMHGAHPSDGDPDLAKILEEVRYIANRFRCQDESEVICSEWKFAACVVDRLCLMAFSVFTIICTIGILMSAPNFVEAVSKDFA

SMILES	inhibition [1] [%]	inhibition [2] [%]
Cc1ccc[n+](CCCCc2ccc(CCCC[n+]3cccc(C)c3)cc2)c1	7.41	4.33
Cc1ccc[n+](CCCCCc2cccc(CCCCC[n+]3cccc(C)c3)c2)c1	6.24	3.5
Cc1cc[n+](CCCCCc2cccc(CCCCC[n+]3ccc(C)cc3)c2)cc1	3.5	4.6
CN1CCC[C@H]1c1ccc[n+](CCCCCc2ccccc2CCCCC[n+]2cccc([C@@H]3CCCN3C)c2)c1	11	71
Cc1cc[n+](CCCCCc2ccccc2CCCCC[n+]2ccc(C)cc2)cc1	3.1	0
Cc1cccc[n+]1CCCCCc1ccccc1CCCCC[n+]1ccccc1C	7.6	0
Cc1cc[n+](CCC#Cc2ccc(C#CCC[n+]3ccc(C)cc3)cc2)cc1	2.7	8.9
Cc1cc[n+](CCCC#Cc2ccccc2C#CCCC[n+]2ccc(C)cc2)cc1	5.4	2.5
Cc1ccc[n+](CCC#Cc2ccc(C#CCC[n+]3cccc(C)c3)cc2)c1	3.1	13
Cc1ccc[n+](CCCCCc2ccccc2CCCCC[n+]2cccc(C)c2)c1	5.4	0
Cc1cccc[n+]1CCCC#Cc1cccc(C#CCCC[n+]2ccccc2C)c1	0	1.9
Cc1ccc[n+](CCCCCCCCCCCC[n+]2cccc(C)c2)c1	0	0
Cc1cccc[n+]1CCCC#Cc1ccccc1C#CCCC[n+]1ccccc1C	1.2	2.1
CN1CCC[C@H]1c1ccc[n+](CCCC#Cc2ccccc2C#CCCC[n+]2cccc([C@@H]3CCCN3C)c2)c1	9.2	72
CN1CCC[C@H]1c1ccc[n+](CCCCc2ccc(CCCC[n+]3cccc([C@@H]4CCCN4C)c3)cc2)c1	5.3	3.66
Cc1cccc[n+]1CCCCCc1cccc(CCCCC[n+]2ccccc2C)c1	0	7.2
Cc1ccc[n+](CCCC#Cc2ccccc2C#CCCC[n+]2cccc(C)c2)c1	0	3.9
Cc1ccc[n+](CCCC#Cc2cccc(C#CCCC[n+]3cccc(C)c3)c2)c1	8	0.5
Cc1cccc[n+]1CCCCc1ccc(CCCC[n+]2ccccc2C)cc1	0.16	6.3
Cc1cc[n+](CCCCc2ccc(CCCC[n+]3ccc(C)cc3)cc2)cc1	7.73	1.1
CN1CCC[C@H]1c1ccc[n+](CCCC#Cc2cccc(C#CCCC[n+]3cccc([C@@H]4CCCN4C)c3)c2)c1	2.6	3.1
Cc1cc[n+](CCCC#Cc2cccc(C#CCCC[n+]3ccc(C)cc3)c2)cc1	6.4	10

Source: ChEMBL document CHEMBL1138337, “Bis-azaaromatic quaternary ammonium salts as antagonists at nicotinic receptors mediating nicotine-evoked dopamine release: An investigation of binding conformation” (2007)
